{
  "source": "paper PMC10066050",
  "about": "“Antimicrobial peptides CS-piscidin-induced cell death involves activation of RIPK1/PARP, and modification with myristic acid enhances its stability and tumor-targeting capability” (Discover. Oncology, 2023)",
  "key": {"ID8-Luc cells": {"test_system": "ID8-Luc cells", "experiment": "Ovarian cancer peritoneal spread mouse model", "format": "in vivo", "settings": "C57BL/6 mice, 5 mpk intraperitoneally every other day, 10 administrations; ascites volume after sacrifice", "protocol": "To create luciferase heredity stable ID8 cells, the PL-luciferase plasmid (Addgene, 21,471) was packaged by co-transfecting it with DVPR and VSVG packing plasmids using PEI in HEK293T. The virus-containing solution was then collected and cell debris was removed through a 0.45 μm filter. After infection, the cells were selected by treating them with 1 μg/mL puromycin for 3 days to eliminate the uninfected ID8 cells. The expression of luciferase in the cells was then confirmed using the Bio-Lumi™ Firefly Luciferase Reporter Gene Assay Kit (RG042S, Beyotime, China).\nThe animal experiment followed the Declaration of Helsinki guidelines and was approved by the Guangdong Medical University Animal Ethical Committee (GDY2102330). 5-week-old female C57BL/6 mice were obtained from Yancheng biological company and housed in an SPF laboratory at 26 ℃ with free access to water and food. Mice were intraperitoneally injected with 5 × 10^6 ID8-Luc-puro cells resuspended in 200 μL PBS. […] Body weight was measured every 5 days. After treatment, mice were injected with pentobarbitone and D-luciferin, and the luminescence signals were observed within 15 min using the live imaging system (In-vivo Xtreme, Bruker, USA). The fluorescence intensity was normalized and analyzed by Bruker MI SE software."}, "ID8 cells": {"test_system": "ID8 cells", "format": "cell-based, mouse", "settings": "24 h", "protocol": "(§1) A2780, SKOV3, ID8, IOSE80, and HUVEC cells (2.0 × 10^3 per well) were seeded into 96-well plates in 100 μL culture medium. After 24 h of incubation, the medium was replaced with a medium containing various peptide concentrations. The cell viability after the peptide treatment was tested by CCK8 assay. Briefly, after 24 h treatment, 10 μL CCK8 was added to each well and incubated for 2 h. After incubation, the optical density (OD) at 450 nm was detected using a microplate reader. Cell viability was calculated using the formula: (%) = [D-D0]/[ D¯ -D0] × 100%. D was the OD value of the experimental group, D0 represented the OD value of the blank control group, while [ D¯ was the mean OD value of the control group."}, "[1]": {"test_system": "normal ovary epithelial cell IOSE80", "experiment": "CCK8 cell viability assay", "format": "cell-based", "settings": "24 h", "protocol": "as §1"}, "[2]": {"test_system": "human umbilical vein endothelial cells HUVEC", "experiment": "CCK8 cell viability assay", "format": "cell-based", "settings": "24 h", "protocol": "as §1"}, "A2780 cells": {"test_system": "A2780 cells", "format": "cell-based, human", "settings": "24 h", "protocol": "as §1"}, "SKOV3 cells": {"test_system": "SKOV3 cells", "format": "cell-based, human", "settings": "24 h", "protocol": "as §1"}, "OVCA429 cells": {"test_system": "OVCA429 cells", "format": "cell-based, human", "settings": "24 h"}},
  "note": "Where no end group is shown, it is not given here.",
  "data": [
    {"sequence": "FFKRLRNKFRLMRQAWKDYR [CS-piscidin]", "values": [
      {"measurement": "ascites / cytotoxicity to normal cells in vivo", "setting": "ID8-Luc cells", "result": "still produced ascites"},
      {"measurement": "IC50", "setting": "ID8 cells", "result": "19.8 ± 0.836", "unit": "µM"},
      {"measurement": "IC50", "setting": "[1]", "result": "35.2 ± 3.14", "unit": "µM"},
      {"measurement": "IC50", "setting": "[2]", "result": "14.3 ± 3.03", "unit": "µM"},
      {"measurement": "IC50", "setting": "A2780 cells", "result": "9.44 ± 0.666", "unit": "µM"},
      {"measurement": "IC50", "setting": "SKOV3 cells", "result": "37.4 ± 5.09", "unit": "µM"},
      {"measurement": "IC50", "setting": "OVCA429 cells", "result": "27.4 ± 1.16", "unit": "µM"}
    ]}
  ]
}
